From paper PMC9953660, “Using ΔK280 TauRD Folding Reporter Cells to Screen TRKB Agonists as Alzheimer’s Disease Treatment Strategy” (Biomolecules, 2023) come the findings set out here.

In data set [1] the target is T1, TRKB extracellular domain (TRKB-ECD) (Homo sapiens, UniProt Q16620).
T1 construct: TRKB-ECD (marked in red, C^32-E^429, XP_016870240); His (C); made in house; host or cells: Pichia pastoris
Put plainly: Tryptophan fluorescence quenching assay. The settings on record: Pichia pastoris-expressed TRKB-ECD, 0–1000 nM, excitation 295 nm, emission 330 nm, room temperature; read-out: KD (TRKB-ECD binding affinity). The procedure: The interaction between the N-terminal extracellular domain of TRKB (TRKB-ECD) and 7,8-DHF (as positive control; [35]), ZN-015, VB-030 or VB-037 was evaluated with tryptophan fluorescence titration. TRKB-ECD-His protein was expressed in the Pichia expression system (Invitrogen) and purified as stated. Intrinsic tryptophan fluorescence spectra with titration of a different concentration of compounds (0–1000 nM) were recorded by fluorescence spectrophotometer F-7000 (Hitachi, Tokyo, Japan), with excitation wavelength 295 nm and emission wavelength in the range of 300–400 nm. The calculation of dissociation constant (KD) between the 7,8-DHF or ZN/VB compound and TRKB was described in a previous report.

A further data set in a line: MTT cell viability assay. Conditions: human. In kind it is cell-based. Here is the method: Human neuroblastoma SH-SY5Y cells with inducible ΔK280 TauRD-DsRed expression were maintained in DMEM/F-12 supplemented with fetal bovine serum (FBS, 10%) (Thermo Scientific, Waltham, MA, USA), penicillin/streptomycin (100 U/mL), selection antibiotics hygromycin (100 μg/mL) and blasticidin (5 μg/mL) (InvivoGen, San Diego, CA, USA), and 1.5 g/l sodium bicarbonate. Cells were cultured at 37 °C in a 5% CO2 atmosphere. The cell viability of ZN and VB compounds (concentration range: 0.1–100 μM) was evaluated by a 3-(4,5-dimethylthiazol-2-yl)-2,5-diphenyltetrazolium bromide (MTT; Sigma-Aldrich) colorimetric assay. The absorbance at 570 nm was recorded by a Multiskan™ GO Microplate Spectrophotometer (Thermo Scientific).

T1 sequence (Q16620 32-429): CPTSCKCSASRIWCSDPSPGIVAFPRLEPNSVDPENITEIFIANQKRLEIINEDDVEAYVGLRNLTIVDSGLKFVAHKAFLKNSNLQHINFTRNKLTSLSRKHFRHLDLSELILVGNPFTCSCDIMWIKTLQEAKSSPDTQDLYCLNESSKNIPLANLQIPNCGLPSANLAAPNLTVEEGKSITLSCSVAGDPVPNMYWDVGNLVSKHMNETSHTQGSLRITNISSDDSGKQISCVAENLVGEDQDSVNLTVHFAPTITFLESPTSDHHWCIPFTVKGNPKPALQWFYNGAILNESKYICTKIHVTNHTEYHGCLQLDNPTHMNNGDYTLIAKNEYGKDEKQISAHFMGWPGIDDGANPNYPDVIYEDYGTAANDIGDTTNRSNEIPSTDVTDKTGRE

With `O=C(/C=C/c1ccccc1O)c1c(O)c2ccccc2oc1=O` [ZN-015, (E)-4-hydroxy-3-(3-(2-hydroxyphenyl)acryloyl)-2H-chromen-2-one], the equilibrium dissociation constant (Kd) in data set [1] was found to be 0.0122 ± 0.0094 µM. This compound also displayed an IC50 at 24 h in “MTT cell viability assay” of 77 µM.

For orientation: Kd means the free concentration of one partner at which half of the binding sites on the other are occupied at equilibrium, for simple one-to-one binding. A word on the IC50: it is the concentration that inhibits the measured activity by half.
